Here are results for 30 molecules from patent publication US8071584B2 (GlaxoSmithKline LLC, priority 2007, dated 2011).

For the assay, the system named is human monocyte stimulated cytokine production (TNF-α). As to the kind of experiment: Monocyte assay (LPS-stimulated TNF-α production). Type of assay: cell-based. The note with it: for IC50: human CD14+ monocytes, 200 ng/mL LPS, 24 hrs, values given as 'about', read-out: pIC50 in the monocyte assay (converted); for inhibition at 0.3 µM: 300 nM, human monocytes, LPS. The protocol: Effect of IKK-β inhibition on human monocyte stimulated cytokine production was assessed as follows: Monocytes were isolated from heparinized whole blood by Ficoll gradient, followed by purification of CD14+ cells using MACS magnetic cell separation beads. Isolated monocytes were then adhered to 96-well culture plates at 1×10^6 cells/mL in RPMI 1640 10% FBS (JRH Biosciences, Lenexa Kans.) for 2 h. Test compounds are added to the wells 30 minutes prior to stimulation with a final vehicle concentration of 0.1% DMSO. Monocytes were activated by the addition of 200 ng/mL endotoxin (LPS; E. coli serotype 026:B6) (Sigma, St. Louis, Mo.) and incubated for 24 hrs at 37 C. Cell-free supernates were analyzed by Alphascreen™ (Perkin Elmer, Waltham, Mass.) for TNF-α using R&D Systems matched pair Abs. Viability of the cells was determined by 10% trypan blue exclusion.

Molecules are shown by their SMILES.

With `NC(=O)c1cc(-c2ccc(F)cc2)cc2c(C3CCS(=O)(=O)C3)c[nH]c12` (racemic) [Example 171, (rac)-3-(1,1-Dioxidotetrahydro-3-thienyl)-5-(4-fluorophenyl)-1H-indole-7-carboxamide], the IC50 is 5.01 to 1000 nM.

On to `CC(C)[C@H]1C[C@H](c2c[nH]c3c(C(N)=O)cc(-c4ccsc4)cc23)CCS1(=O)=O` (racemic) [Example 241, (racemic)-3-[trans-2-(1-Methylethyl)-1,1-dioxidotetrahydro-2H-thiopyran-4-yl]-5-(3-thienyl)-1H-indole-7-carboxamide], for which the IC50 is 5.01 to 1000 nM.

A word on the inhibition: it is the relative decrease from the control value, in per cent. A higher inhibition goes with a response far below the control. `CC(C)[C@H]1C[C@H](c2c[nH]c3c(C(N)=O)cc(-c4ccccc4)cc23)CCS1(=O)=O` (racemic) [Example 242, racemic-3-[(trans)-2-(1-Methylethyl)-1,1-dioxidotetrahydro-2H-thiopyran-4-yl]-5-phenyl-1H-indole-7-carboxamide] yielded an inhibition at 0.3 µM of 0 to 100%.

`CC(C)[C@H]1CC(c2c[nH]c3c(C(N)=O)cc(-c4ccoc4)cc23)CCS1(=O)=O` (mixture of isomers) [Example 243, (mixture of isomers)-5-(3-Furanyl)-3-[trans-2-(1-methylethyl)-1,1-dioxidotetrahydro-2H-thiopyran-4-yl]-1H-indole-7-carboxamide] returned an inhibition at 0.3 µM of 0 to 100%.

With `CC(C)[C@H]1C[C@H](c2c[nH]c3c(C(N)=O)cc(-c4ccco4)cc23)CCS1(=O)=O` (racemic) [Example 244, (racemic)-5-(2-Furanyl)-3-[trans-2-(1-methylethyl)-1,1-dioxidotetrahydro-2H-thiopyran-4-yl]-1H-indole-7-carboxamide], the IC50 is 5.01 to 1000 nM.

As for `CC(C)[C@H]1C[C@H](c2c[nH]c3c(C(N)=O)cc(-c4cccs4)cc23)CCS1(=O)=O` (racemic) [Example 245, (racemic)-3-[trans-2-(1-Methylethyl)-1,1-dioxidotetrahydro-2H-thiopyran-4-yl]-5-(2-thienyl)-1H-indole-7-carboxamide], the IC50 is 5.01 to 1000 nM.

As to `CC(C)[C@@H]1C[C@H](c2c[nH]c3c(C(N)=O)cc(-c4ccsc4)cc23)CCS1(=O)=O` (racemic) [Example 246, (racemic)-3-[cis-2-(1-Methylethyl)-1,1-dioxidotetrahydro-2H-thiopyran-4-yl]-5-(3-thienyl)-1H-indole-7-carboxamide], the IC50 was 5.01 to 1000 nM.

Consider `NC(=O)c1cc(-c2cccs2)cc2c([C@H]3CCS(=O)(=O)[C@@H](c4ccccc4)C3)c[nH]c12` (racemic) [Example 249, 3-(1,1-Dioxido-2-cis-phenyltetrahydro-2H-thiopyran-4-yl)-5-(2-thienyl)-1H-indole-7-carboxamide], for which the IC50 is 5.01 to 1000 nM.

In the case of `NC(=O)c1cc(-c2ccoc2)cc2c([C@H]3CCS(=O)(=O)[C@@H](c4ccccc4)C3)c[nH]c12` (racemic) [Example 250, 3-(1,1-Dioxido-2-cis-phenyltetrahydro-2H-thiopyran-4-yl)-5-(3-furanyl)-1H-indole-7-carboxamide], the IC50 was 5.01 to 1000 nM.

Regarding `NC(=O)c1cc(-c2ccco2)cc2c([C@H]3CCS(=O)(=O)[C@@H](c4ccccc4)C3)c[nH]c12` (racemic) [Example 251, 3-(1,1-Dioxido-2-phenyltetrahydro-2H-thiopyran-4-yl)-5-(2-furanyl)-1H-indole-7-carboxamide], the IC50 is 5.01 to 1000 nM.

Regarding `NC(=O)c1cc(-c2ccccc2)cc2c([C@H]3CCS(=O)(=O)[C@@H](c4ccccc4)C3)c[nH]c12` (racemic) [Example 252, 3-(1,1-Dioxido-2-phenyltetrahydro-2H-thiopyran-4-yl)-5-phenyl-1H-indole-7-carboxamide], the IC50 is 5.01 to 1000 nM.

Consider `NC(=O)c1cc(-c2ccccc2)cc2c(C3CCS(=O)(=O)CC3)c[nH]c12` [Example 1, 3-(1,1-Dioxidotetrahydro-2H-thiopyran-4-yl)-5-phenyl-1H-indole-7-carboxamide], for which the IC50 is 5.01 to 1000 nM.

In the case of `N#CCc1ccc(-c2cc(C(N)=O)c3[nH]cc(C4CCS(=O)(=O)CC4)c3c2)cc1` [Example 65, 5-[4-(Cyanomethyl)phenyl]-3-(1,1-dioxidotetrahydro-2H-thiopyran-4-yl)-1H-indole-7-carboxamide], the IC50 was 5.01 to 1000 nM.

For `CC(C)(O)CCc1ccc(-c2cc(C(N)=O)c3[nH]cc(C4CCS(=O)(=O)CC4)c3c2)s1` [Example 66, 3-(1,1-Dioxidotetrahydro-2H-thiopyran-4-yl)-5-[5-(3-hydroxy-3-methylbutyl)-2-thienyl]-1H-indole-7-carboxamide], the IC50 was 5.01 to 1000 nM.

For the molecule `CN(C)c1ccc(-c2cc(C(N)=O)c3[nH]cc(C4CCS(=O)(=O)CC4)c3c2)cn1` [Example 67, 5-[6-(Dimethylamino)-3-pyridinyl]-3-(1,1-dioxidotetrahydro-2H-thiopyran-4-yl)-1H-indole-7-carboxamide], the IC50 was 5.01 to 1000 nM.

For `NC(=O)c1cc(-c2ccnc(Cl)c2)cc2c(C3CCS(=O)(=O)CC3)c[nH]c12` [Example 68, 5-(2-Chloro-4-pyridinyl)-3-(1,1-dioxidotetrahydro-2H-thiopyran-4-yl)-1H-indole-7-carboxamide], the IC50 was 5.01 to 1000 nM.

On to `NC(=O)c1cc(-c2ccc3c(c2)CCO3)cc2c(C3CCS(=O)(=O)CC3)c[nH]c12` [Example 69, 5-(2,3-Dihydro-1-benzofuran-5-yl)-3-(1,1-dioxidotetrahydro-2H-thiopyran-4-yl)-1H-indole-7-carboxamide], for which the IC50 is 5.01 to 1000 nM.

In turn, `NC(=O)c1cc(-c2csc(CN3CCC3)c2)cc2c(C3CCS(=O)(=O)CC3)c[nH]c12` [Example 70, 5-[5-(1-Azetidinylmethyl)-3-thienyl]-3-(1,1-dioxidotetrahydro-2H-thiopyran-4-yl)-1H-indole-7-carboxamide] registered an inhibition at 0.3 µM of 0 to 100%.

As for `COCCN(C)Cc1cc(-c2cc(C(N)=O)c3[nH]cc(C4CCS(=O)(=O)CC4)c3c2)cs1` [Example 71, 3-(1,1-Dioxidotetrahydro-2H-thiopyran-4-yl)-5-[5-({methyl[2-(methyloxy)ethyl]amino}methyl)-3-thienyl]-1H-indole-7-carboxamide], the IC50 was 5.01 to 1000 nM.

For `NC(=O)c1cc(-c2csc(CN3CCCCCC3)c2)cc2c(C3CCS(=O)(=O)CC3)c[nH]c12` [Example 72, 3-(1,1-Dioxidotetrahydro-2H-thiopyran-4-yl)-5-[5-(hexahydro-1H-azepin-1-ylmethyl)-3-thienyl]-1H-indole-7-carboxamide], the IC50 was 5.01 to 1000 nM.

As for `CN(C)Cc1cc(-c2cc(C(N)=O)c3[nH]cc(C4CCS(=O)(=O)CC4)c3c2)cs1` [Example 73, 5-{5-[(Dimethylamino)methyl]-3-thienyl}-3-(1,1-dioxidotetrahydro-2H-thiopyran-4-yl)-1H-indole-7-carboxamide], the IC50 was 5.01 to 1000 nM.

On to `CC(C)N(C)Cc1cc(-c2cc(C(N)=O)c3[nH]cc(C4CCS(=O)(=O)CC4)c3c2)cs1` [Example 74, 3-(1,1-Dioxidotetrahydro-2H-thiopyran-4-yl)-5-(5-{[methyl(1-methylethyl)amino]methyl}-3-thienyl)-1H-indole-7-carboxamide], for which the IC50 was 5.01 to 1000 nM.

In the case of `CCN(C)Cc1cc(-c2cc(C(N)=O)c3[nH]cc(C4CCS(=O)(=O)CC4)c3c2)cs1` [Example 75, 3-(1,1-Dioxidotetrahydro-2H-thiopyran-4-yl)-5-(5-{[ethyl(methyl)amino]methyl}-3-thienyl)-1H-indole-7-carboxamide], the IC50 is 5.01 to 1000 nM.

Turning to `CCN(CC)Cc1cc(-c2cc(C(N)=O)c3[nH]cc(C4CCS(=O)(=O)CC4)c3c2)cs1` [Example 76, 5-{5-[(diethylamino)methyl]-3-thienyl}-3-(1,1-dioxidotetrahydro-2H-thiopyran-4-yl)-1H-indole-7-carboxamide], the IC50 is 5.01 to 1000 nM.

Turning to `CN(CCOC(C)(C)C)Cc1cc(-c2cc(C(N)=O)c3[nH]cc(C4CCS(=O)(=O)CC4)c3c2)cs1` [Example 77, 5-(5-{[{2-[(1,1-Dimethylethyl)oxy]ethyl}(methyl)amino]methyl}-3-thienyl)-3-(1,1-dioxidotetrahydro-2H-thiopyran-4-yl)-1H-indole-7-carboxamide], the inhibition at 0.3 µM lay in the range of 0 to 100%.

As to `CNCc1cccc(-c2cc(C(N)=O)c3[nH]cc(C4CCS(=O)(=O)CC4)c3c2)c1` [Example 78, 3-(1,1-Dioxidotetrahydro-2H-thiopyran-4-yl)-5-{3-[(methylamino)methyl]phenyl}-1H-indole-7-carboxamide], the IC50 is 5.01 to 1000 nM.

With `CN(C)Cc1cccc(-c2cc(C(N)=O)c3[nH]cc(C4CCS(=O)(=O)CC4)c3c2)c1` [Example 79], the IC50 is 5.01 to 1000 nM.

Take `CC(C)[C@H](C)NCc1cccc(-c2cc(C(N)=O)c3[nH]cc(C4CCS(=O)(=O)CC4)c3c2)c1` [Example 80, 5-[3-({[(1S)-1,2-Dimethylpropyl]amino}methyl)phenyl]-3-(1,1-dioxidotetrahydro-2H-thiopyran-4-yl)-1H-indole-7-carboxamide]: the IC50 was 5.01 to 1000 nM.

Turning to `NC(=O)c1cc(-c2ccc(S(=O)(=O)N3CCC3)s2)cc2c(C3CCS(=O)(=O)CC3)c[nH]c12` [Example 81, 5-[5-(1-Azetidinylsulfonyl)-2-thienyl]-3-(1,1-dioxidotetrahydro-2H-thiopyran-4-yl)-1H-indole-7-carboxamide], the IC50 is 5.01 to 1000 nM.

`NC(=O)c1cc(-c2ccc3[nH]ncc3c2)cc2c(C3CCS(=O)(=O)CC3)c[nH]c12` [Example 82, 3-(1,1-Dioxidotetrahydro-2H-thiopyran-4-yl)-5-(1H-indazol-5-yl)-1H-indole-7-carboxamide]: the IC50 was 5.01 to 1000 nM.
